Measured values reported in patent US20220395495A1 (priority 2019, published 2022).

How the values were obtained:
[1] = system: Mtb H37Rv; assay: Guinea pig infection model of tuberculosis, lung bacterial burden, Inh with or without CQ; format: in vivo, Outbred Hartley guinea pigs; conditions: Guinea pigs (FIG. 1F)
[2] = system: Mtb within macrophages; assay: Drug tolerance and killing of Mtb within macrophages; format: cell-based; conditions: by deacidification
[3] = system: TB; assay: Direct in vitro activity on TB
[4] = Plasma concentrations and exposures of CQ by intraperitoneal or oral route; conditions: in vivo
[5] = system: Mtb H37Rv; assay: Mouse chronic infection model of tuberculosis, lung bacterial CFU, Inh or Rif with or without CQ; format: in vivo, BALB/c mice; conditions: mice, 10 mg/kg chloroquine added to first line TB drug (FIGS. 1B, 1C)
[6] = system: Mtb H37Rv; assay: Dexamethasone-induced reactivation (relapse) of Mtb in the lungs of chronically infected BALB/c mice after treatment; format: in vivo

SMILES	Bacterial killing and efficacy on addition of chloroquine to Isoniazid [1]	Effect on phenotypic drug tolerance and killing of Mtb within macrophages [2]	Direct in vitro activity on TB [3]	Plasma concentrations and exposures, intraperitoneal versus oral route [4]	Bacterial killing and efficacy on addition of chloroquine to Isoniazid (H) or Rifampicin (R) [5]	Average log10CFU per lung ([6]; reactivated Mtb in lungs after dexamethasone immunosuppression, 22nd week p.i., average over relapsed animals)	Percentage relapse ([6]; treatment stopped at 12 weeks p.i., 8 weeks without treatment, then dexamethasone 10 mg/kg i.p. x4 over 2 weeks, lungs at 22nd week p.i., n=5)
CCN(CC)CCCC(C)Nc1ccnc2cc(Cl)ccc12 (stereo not shown) [Chloroquine]	enhanced bacterial killing and efficacy	counteracts phenotypic drug tolerance and accelerates killing of Mtb within macrophages	no or limited direct in vitro activity on TB	nearly equivalent plasma concentrations and exposures	enhanced bacterial killing and efficacy	–	–
NNC(=O)c1ccncc1 [Inh alone, Isoniazid]	–	–	–	–	–	4.2 (n = 5) log10CFU per lung	100% (5/5)
